Drawing on patent US8808702B2, “Sulfide, sulfoxide and sulfone chalcone analogues, derivatives thereof and therapeutic uses thereof” (Temple University-of the Commonwealth System of Higher …, priority 2006, dated 2014), this text covers IC50 for 24 molecules.

Assay [1] relates to K562 (chronic myelogenous leukaemia). The assay is described as follows: Effect of compounds on tumor cell lines (assay of Latham et al.), K562. The note with it: Table 1; K562 cells, examined 96 hours after treatment, 1 μM to 100 μM in DMSO; read-out: K 562 potency (IC50). In kind it is cell-based. The procedure: (§1) The effect of the compounds of the invention on tumor cells was determined by the assay described by Latham et al., Oncogene 12:827-837 (1996). Tumor cells K562 (chronic myelogenous leukaemia) or DU145 (prostate cancer) were plated in 12-well dishes at a cell density of 2.5×10^4 cells well. The plated cells were treated 24 hours later with a compound of the invention dissolved in DMSO at multiple concentrations ranging from 1 μM to 100 μM. The plates were examined 96 hours later under an inverted microscope, Olympus CK-2 using an 10× objective, and compound activity was noted by physical observation. When necessary, the total number of viable cells was determined by trypsinizing the wells and counting the number of viable cells, as determined by trypan blue exclusion, using a hemacytometer.
(§2) The representative compounds listed in Tables 1-5 are shown by way of illustration, and are not intended to limit the scope of the invention. The compounds are prepared and tested by methods based on those described above, except that the compound of Table 5 was dissolved in DMSO at multiple concentrations ranging from 0.1 μM to 100 μM

The test system of the next assay is DU145 (prostate cancer). The assay is described as follows: Effect of compounds on tumor cell lines (assay of Latham et al.), DU145. In kind it is cell-based. As to conditions: Table 1; DU145 cells, examined 96 hours after treatment, 1 μM to 100 μM in DMSO; read-out: DU 145 potency (IC50). As to the method:
as §1, §2

SMILES strings stand for the structures.

In general, IC50 refers to the concentration needed to halve the response being measured. Turning to `COc1ccc(C=C(Sc2ccc(Br)cc2)C(=O)c2ccc(Br)cc2)cc1` [Example 47], the IC50 fell in the range of 1 to 10 µM in assay [1] and 25 to 50 µM in the assay with DU145 (prostate cancer).
In the case of `COc1ccc(C=C(Sc2ccc(Br)cc2)C(=O)c2ccc(Cl)cc2)cc1` [Example 48], the IC50 was 1 to 10 µM in assay [1] and 50 to 100 µM in the assay on DU145 (prostate cancer).
For `CN(C)c1ccc(C=C(Sc2ccc(Br)cc2)C(=O)c2ccc(Cl)cc2)cc1` [Example 49] the same measures were greater than 100 µM and greater than 100 µM.
For `O=C(C(=Cc1ccc(Oc2ccccc2)cc1)Sc1ccc(Br)cc1)c1ccc(Br)cc1` [Example 50] the same measures were 50 to 100 µM and 50 to 100 µM.
For `O=C(C(=Cc1ccc(OC(F)(F)F)cc1)Sc1ccc(Br)cc1)c1ccc(Br)cc1` [Example 51] the same measures were 1 to 10 µM and 1 to 10 µM.
Take `COc1ccc2[nH]cc(C=C(Sc3ccc(Br)cc3)C(=O)c3ccc(Br)cc3)c2c1` [Example 52]: the IC50 (in assay [1]; with DU145 (prostate cancer)) was 1 to 10 µM in each case.
For the molecule `O=C(C(=Cc1ccc(Cl)cc1)Sc1ccc(Cl)cc1)c1ccc(Cl)cc1` [Example 53], the IC50 (in assay [1]; with DU145 (prostate cancer)) was 1 to 10 µM in each case.
On to `COc1ccc(C(=O)C(=Cc2c(OC)cc(OC)cc2OC)Sc2ccc(F)cc2)cc1` [Example 54], for which the concentration for half-maximal inhibition (IC50) (in assay [1]; in the assay with DU145 (prostate cancer)) was 50 to 100 µM throughout.
In the case of `O=C(C(=Cc1ccccc1OCc1ccccc1)Sc1ccc(F)cc1)c1ccc(Cl)cc1` [Example 55], the IC50 (in assay [1]; with DU145 (prostate cancer)) was 1 to 10 µM each time.
For `COc1ccc(C(=O)C(=Cc2ccc(OC)c(O)c2)Sc2ccc(F)cc2)cc1` [Example 56], the values for the IC50 (in assay [1]; in the assay with DU145 (prostate cancer)) were 1 to 10 µM and 10 to 25 µM, respectively.
On the same counts, the results for `COc1ccc(C(=O)C(=Cc2ccc(Br)cc2)Sc2ccc(F)cc2)cc1` [Example 57] are greater than 100 µM and greater than 100 µM.
For the molecule `COc1ccc(C(=O)C(=Cc2ccc(Cl)cc2)Sc2ccc(F)cc2)cc1` [Example 58], the IC50 (in assay [1]; in the assay on DU145 (prostate cancer)) was greater than 100 µM throughout.
With `COc1ccc(C=C(Sc2ccc(F)cc2)C(=O)c2ccc(OC)cc2)cc1` [Example 59], the IC50 fell in the range of 1 to 10 µM in assay [1] and 25 to 50 µM in the assay on DU145 (prostate cancer).
`Cc1ccc(C=C(Sc2ccc(F)cc2)C(=O)c2ccc(Cl)cc2)s1` [Example 60]: the IC50 (in assay [1]; in the assay on DU145 (prostate cancer)) was 25 to 50 µM throughout.
`COc1ccc(SC(=Cc2ccc(Cl)cc2Cl)C(=O)c2ccc(Br)cc2)cc1` [Example 61]: the IC50 (in assay [1]; in the assay with DU145 (prostate cancer)) was 1 to 10 µM throughout.
For `COc1ccc(SC(=Cc2ccccc2OCc2ccccc2)C(=O)c2ccc(Cl)cc2)cc1` [Example 62], the IC50 (in assay [1]; in the assay on DU145 (prostate cancer)) was 1 to 10 µM each time.
For `COc1ccc(SC(=Cc2ccc(Br)cc2)C(=O)c2ccc(Br)cc2)cc1` [Example 63], the IC50 was 1 to 10 µM in assay [1] and 25 to 50 µM in the assay with DU145 (prostate cancer).
Take `COc1ccc(SC(=Cc2ccc(C)s2)C(=O)c2ccc(Cl)cc2)cc1` [Example 64]: the IC50 (in assay [1]; with DU145 (prostate cancer)) was 50 to 100 µM throughout.
Regarding `Cc1ccc(SC(=Cc2c(F)c(F)c(F)c(F)c2F)C(=O)c2ccc(Cl)cc2)cc1` [Example 65], the IC50 (in assay [1]; in the assay with DU145 (prostate cancer)) was 25 to 50 µM each time.
On to `Cc1ccc(SC(=Cc2c(O)cc(O)cc2O)C(=O)c2ccc(Br)cc2)cc1` [Example 67], for which the IC50 was 50 to 100 µM in assay [1] and greater than 100 µM in the assay on DU145 (prostate cancer).
On the same counts, the results for `Cc1ccc(SC(=Cc2c(O)cc(O)cc2O)C(=O)c2ccc(Cl)cc2)cc1` [Example 68] are greater than 100 µM and greater than 100 µM.
On the same counts, the results for `COc1cc(OC)c(C=C(Sc2ccc(C)cc2)C(=O)c2ccc(Cl)cc2)c(OC)c1` [Example 70] are 25 to 50 µM and greater than 100 µM.
For `Cc1ccc(SC(=Cc2ccc(Cl)cc2Cl)C(=O)c2ccc(Cl)cc2)cc1` [Example 71] the same measures were 25 to 50 µM and 10 to 25 µM.
As to `Cc1ccc(SC(=Cc2ccc(F)cc2F)C(=O)c2ccc(Br)cc2)cc1` [Example 73], the IC50 (in assay [1]; with DU145 (prostate cancer)) was greater than 100 µM in each case.
